Data set [1] has as its system SD rats. Particulars: rat, in vivo; for MLD: iv.
Data set [2] has as its system SD rats. In words: animal or person. It is filed as in vivo. Particulars: iv; for Minimal effective anesthetic dose / Onset time / Righting feflex duration / Sedation Duration / Minimal effective analgesic dose: rat, in vivo; for minimal effective dose: Rattus norvegicus.
The mark [3] stands for this setting: read-out: Minimal effective anesthetic dose.
The mark [4] stands for this setting: read-out: Minimal effective analgesic dose.

Read-outs that look alike come from different tables or passages of the source. Some results are limits rather than exact numbers.
Throughout, for Onset time: test concentration or dose not given here.
Throughout, for Righting feflex duration: test concentration or dose not given here.
Throughout, for Sedation Duration: test concentration or dose not given here.

In data set [1], `CC(=O)C(C)(C)OC(=O)CCC1N=C(c2ccccn2)c2cc(Br)ccc2-n2c(C)cnc21` (centres unmarked) [Compound 6] came in with a TI of more than 3.8 and an MLD of more than 5 mg/kg. In data set [2], the “Minimal effective anesthetic dose” value came out at 1.3 mg/kg, the Onset time fell in the range of 0.3 to 0.8 min, the Righting feflex duration lay within 0.6 to 3.4 min and the “Sedation Duration” value lay in the range of 4.0 to 10.7 min.

For `CC(=O)OCCC1N=C(c2ccccn2)c2cc(Br)ccc2-n2c(C)cnc21` (centres unmarked) [Compound 145], in data set [1], the TI turned out to be 6.0 and the MLD came out at 30 mg/kg. Also, in data set [2], the “Minimal effective analgesic dose” value amounted to 20 mg/kg, the “Minimal effective anesthetic dose” value stood at 5.0 mg/kg, the Onset time lay in the range of 0.2 to 0.4 min and the Righting feflex duration lay within 0.5 to 14.3 min. Besides, the “Sedation Duration” value in data set [2] was in the range of 33.1 to 88.2 min.

Regarding `CCOC(=O)CCC1N=C(c2ccccn2)c2cc([N+](=O)[O-])ccc2N(C)C1=O` (centres unmarked) [Compound 28], in data set [1], the TI is recorded as more than 2.3 and the MLD is more than 11.3 mg/kg. In addition, in data set [2], the “Minimal effective anesthetic dose” value is reported as 5.0 mg/kg, the Onset time lay within 0.2 to 0.5 min, the Righting feflex duration fell in the range of 0.5 to 1.6 min and the “Sedation Duration” value is 4.1 to 7.3 min.

The term minimal effective dose denotes the lowest level tested that produced the effect sought. In data set [1] (SD), `CCn1nnnc1CCN1N=C(c2ccccn2)c2cc(Br)ccc2N(C)C1=O` [Compound 264] gave a TI of 2 and an MLD of 10 mg/kg. Besides, the minimal effective dose in data set [2] (setting [3]) was 5 mg/kg. In data set [2], the Onset time was 0.43 min, the Righting feflex duration came out at 1.77 min and the “Sedation Duration” value was 8.93 min.

As to `Cc1cnc2n1-c1ccc(Br)cc1C(c1ccccn1)=NC2CCOC(=O)N(C)C.O=S(=O)(O)c1ccccc1` (centres unmarked) [Compound 156D], in data set [1], the TI is given as more than 1.5 and the MLD is on record as more than 7.5 mg/kg. Also, in data set [2], the “Minimal effective anesthetic dose” value was determined as 5.0 mg/kg, the Onset time lay within 0.2 to 0.6 min, the Righting feflex duration fell in the range of 0.6 to 10.9 min and the “Sedation Duration” value fell in the range of 12.8 to 36.9 min.

In data set [1] (SD), `CC(C)OC(=O)CN1N=C(c2ccccn2)c2cc(Br)ccc2N(C)C1=O` [Compound 239] yielded a TI of 8 and an MLD of 40 mg/kg. Further, the minimal effective dose in data set [2] (setting [4]) was 10 mg/kg. For the same molecule, the minimal effective dose in data set [2] (setting [3]) stood at 5 mg/kg. In addition, in data set [2], the Onset time fell in the range of 0.17 to 0.75 min, the Righting feflex duration was in the range of 1.30 to 11.58 min and the “Sedation Duration” value fell in the range of 17.72 to 23.57 min.

In data set [1] (SD), `C=CC1(OC(=O)CN2N=C(c3ccccn3)c3cc(Br)ccc3N(C)C2=O)COC1` [Compound 254] registered a TI of 2 and an MLD of 20 mg/kg. Also, the minimal effective dose in data set [2] (setting [3]) is 10 mg/kg. In addition, in data set [2], the Onset time was 0.60 to 0.65 min, the Righting feflex duration lay in the range of 0.78 to 3.10 min and the “Sedation Duration” value was 29.25 to 40.22 min.

In data set [1] (SD), `CCC(C)(C)OC(=O)CN1N=C(c2ccccn2)c2cc(Br)ccc2-n2c(C)cnc21` [Compound 313] showed a TI of 2 and an MLD of 30 mg/kg. In data set [2] (setting [4]), the minimal effective dose was found to be 20 mg/kg. Moreover, in data set [2] (setting [3]), the minimal effective dose turned out to be 15 mg/kg. In addition, in data set [2], the Onset time is 0.53 to 0.97 min, the Righting feflex duration fell in the range of 12.27 to 13.62 min and the “Sedation Duration” value lay within 43.43 to 66.15 min.

`COC(=O)CC1N=C(c2ccccn2)c2cc(Br)ccc2N(C)C1=O` (centres unmarked) [Compound 113]: in data set [1], the TI came to 2.7 and the MLD amounted to 40 mg/kg. For the same molecule, in data set [2], the “Minimal effective anesthetic dose” value is 15.0 mg/kg, the Onset time is 0.2 to 0.3 min, the Righting feflex duration was in the range of 0.7 to 29.5 min and the “Sedation Duration” value is 20.6 to 77.7 min.

Take `C#C[C@H](C)OC(=O)CN1N=C(c2ccccn2)c2cc(Br)ccc2N(C)C1=O` [Compound 252]: in data set [1] (SD), the TI amounted to 2 and the MLD was determined as 40 mg/kg. Further, the minimal effective dose in data set [2] (setting [4]) was found to be 30 mg/kg. In addition, the minimal effective dose in data set [2] (setting [3]) was 20 mg/kg. Further, in data set [2], the Onset time is 0.43 min, the Righting feflex duration was in the range of 2.92 to 5.05 min and the “Sedation Duration” value lay within 9.95 to 10.58 min.

Turning to `C#C[C@@H](C)OC(=O)CN1N=C(c2ccccn2)c2cc(Br)ccc2-n2c(C)cnc21` [Compound 312], in data set [1] (SD), the TI was found to be 4 and the MLD is given as 40 mg/kg. In addition, the minimal effective dose in data set [2] (setting [4]) was found to be 10 mg/kg. The minimal effective dose in data set [2] (setting [3]) was determined as 10 mg/kg. In data set [2], the Onset time was 0.15 to 0.52 min, the Righting feflex duration was 2.97 to 38.32 min and the “Sedation Duration” value lay in the range of 138.40 to 240 min.

In the case of `CC(=O)C(C)(C)OC(=O)CCC1N=C(c2ccccn2)c2cc(Br)ccc2N(C)C1=O` (centres unmarked) [Compound 18], in data set [1], the TI is more than 2.4 and the MLD is more than 1.2 mg/kg. Further, in data set [2], the “Minimal effective anesthetic dose” value came out at 0.5 mg/kg, the Onset time was in the range of 0.2 to 0.9 min, the Righting feflex duration was in the range of 0.8 to 4.2 min and the “Sedation Duration” value is 4.5 to 10.7 min.

In data set [1], `C=CC(=O)OCCC1N=C(c2ccccn2)c2cc(Br)ccc2-n2c(C)cnc21` (centres unmarked) [Compound 151] yielded a TI of 16.3 and an MLD of 29.4 mg/kg. Also, in data set [2], the “Minimal effective anesthetic dose” value was determined as 1.8 mg/kg, the Onset time was in the range of 0.2 to 3.4 min, the Righting feflex duration was 3.7 to 38.6 min and the “Sedation Duration” value lay in the range of 19.0 to 68.4 min.

Turning to `CC(=O)OC1N=C(c2ccccn2)c2cc(Br)ccc2N(C)C1=O` (centres unmarked) [Compound 164], in data set [1], the TI is 8.0 and the MLD was determined as 40 mg/kg. Besides, in data set [2], the “Minimal effective anesthetic dose” value is given as 5.0 mg/kg, the Onset time lay within 0.2 to 1.0 min, the Righting feflex duration lay in the range of 1.2 to 50.4 min and the “Sedation Duration” value lay in the range of 116.7 to 284.0 min.

For `Cc1ccc(C(=O)OCC2N=C(c3ccccn3)c3cc(Br)ccc3-n3c(C)cnc32)cc1` (centres unmarked) [Compound 192], in data set [1], the TI is given as 2.0 and the MLD is 10.0 mg/kg. Besides, in data set [2], the “Minimal effective anesthetic dose” value is recorded as 5.0 mg/kg, the Onset time was in the range of 0.2 to 0.4 min, the Righting feflex duration lay within 5.9 to 14.9 min and the “Sedation Duration” value fell in the range of 156.7 to 200.0 min.

In data set [1], `CN1C(=O)C(CCO)N=C(c2ccccn2)c2cc(Br)ccc21` (centres unmarked) [Compound 117] returned a TI of 1.6 and an MLD of 40 mg/kg. In data set [2], the “Minimal effective anesthetic dose” value is on record as 25.0 mg/kg, the Onset time lay within 0.4 to 0.5 min, the Righting feflex duration lay in the range of 2.7 to 3.8 min and the “Sedation Duration” value lay in the range of 14.6 to 32.0 min.

`C=CC(C)OC(=O)CN1N=C(c2ccccn2)c2cc(Br)ccc2-n2c(C)cnc21` (centres unmarked) [Compound 310]: in data set [1] (SD), the TI is reported as 4 and the MLD amounted to 40 mg/kg. Also, the minimal effective dose in data set [2] (setting [4]) amounted to 20 mg/kg. Moreover, the minimal effective dose in data set [2] (setting [3]) turned out to be 10 mg/kg. Further, in data set [2], the Onset time is 0.15 to 0.52 min, the Righting feflex duration was in the range of 2.97 to 38.32 min and the “Sedation Duration” value is 138.40 to 240 min.

As for `Cc1cnc2n1-c1ccc(Br)cc1C(c1ccccn1)=NC2COS(=O)c1ccccc1` (centres unmarked) [Compound 195], in data set [1], the TI was more than 2.9 and the MLD is reported as more than 21.8 mg/kg. In data set [2], the “Minimal effective analgesic dose” value came out at 21.8 mg/kg, the “Minimal effective anesthetic dose” value stood at 7.5 mg/kg, the Onset time was in the range of 0.2 to 0.5 min and the Righting feflex duration is 5.3 to 76.6 min. For the same molecule, the “Sedation Duration” value in data set [2] lay in the range of 78.5 to 195.4 min.

In data set [1] (SD), `Cc1cnc2n1-c1ccc(Br)cc1C(c1ccccn1)=NN2CCOC(=O)C(C)C` [Compound 315] had a TI of 2.7 and an MLD of 10 mg/kg. In data set [2] (setting [4]), the minimal effective dose stood at 30 mg/kg. Also, the minimal effective dose in data set [2] (setting [3]) was 3.75 mg/kg. Further, in data set [2], the Onset time was 0.38 to 0.75 min, the Righting feflex duration lay in the range of 0.58 to 2.35 min and the “Sedation Duration” value is 14.12 to 24.55 min.

In the case of `COc1nonc1CCN1N=C(c2ccccn2)c2cc(Br)ccc2N(C)C1=O` [Compound 273], in data set [1] (SD), the TI is given as more than 2 and the MLD is more than 20 mg/kg. Further, the minimal effective dose in data set [2] (setting [3]) turned out to be 10 mg/kg. In addition, in data set [2], the Onset time fell in the range of 0.25 to 0.27 min, the Righting feflex duration lay within 2.38 to 9.68 min and the “Sedation Duration” value was in the range of 43.97 to 44.82 min.

Turning to `CCC(=O)OCC1N=C(c2ccccn2)c2cc(Br)ccc2N(C)C1=O` (centres unmarked) [Compound 40], in data set [1], the TI was determined as 8.0 and the MLD came to 40 mg/kg. In data set [2], the “Minimal effective anesthetic dose” value was determined as 5.0 mg/kg, the Onset time fell in the range of 0.2 to 0.5 min, the Righting feflex duration lay within 1.3 to 17.2 min and the “Sedation Duration” value was 40.2 to 364.0 min.

In data set [1], `CN1C(=O)C(CCC(=O)OC2(C)COC2)N=C(c2ccccn2)c2cc(Br)ccc21` (centres unmarked) [Compound 14] showed a TI of more than 2 and an MLD of more than 1 mg/kg. Further, in data set [2], the “Minimal effective anesthetic dose” value is 0.5 mg/kg, the Onset time was in the range of 0.2 to 0.7 min, the Righting feflex duration was 0.6 to 3.2 min and the “Sedation Duration” value lay within 3.5 to 7.0 min.

As to `CC[C@H](C)OC(=O)CN1N=C(c2ccccn2)c2cc(Br)ccc2N(C)C1=O` [Compound 242], in data set [1] (SD), the TI is 4 and the MLD is reported as 30 mg/kg. Moreover, in data set [2] (setting [3]), the minimal effective dose was 7.5 mg/kg. Besides, in data set [2], the Onset time was 0.28 to 0.55 min, the Righting feflex duration lay within 5.05 to 18.42 min and the “Sedation Duration” value lay within 19.98 to 46.92 min.

In data set [1] (SD), `CN(C)C(=O)OCN1N=C(c2ccccn2)c2cc(Br)ccc2N(C)C1=O` [Compound 291] displayed a TI of 2 and an MLD of 30 mg/kg. For the same molecule, the minimal effective dose in data set [2] (setting [4]) is 15 mg/kg. Further, the minimal effective dose in data set [2] (setting [3]) stood at 15 mg/kg. In data set [2], the Onset time fell in the range of 0.65 to 0.92 min and the Righting feflex duration is 2.03 to 5.98 min.

For the origin of these results see patent publication EP4711368A1 (priority 2023, dated 2024).
